In the supplement of paper PMC8671470:
± gives the standard deviation of the averaged measurements.

The compounds below were run on HL-60 (assay: cell viability (% survival relative to DMSO control); higher = less cytotoxic). Conditions: 0.001 µM; 72 h; co-treatment: pictilisib 100 nM.
Method in brief: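 A rescreen of the full library used HL-60 cells in RPMI 1640 with 10% FBS on 384-well plates, run in duplicate at five tenfold concentrations (1–10,000 nM). Each screen included DMSO or 100 nM of one of three metabolic inhibitors and ran 72 h at 37 °C, 5% CO2. CellTiter-Glo viability was scaled between DMSO and 10 μM proteasome-inhibitor wells. Any area under the curve comes from four-parameter log-logistic fits with drc and PharmacoGx.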
For `O=C(O)C1=CC(=C(c2ccc(O)c(C(=O)O)c2)c2ccc(O)c(C(=O)O)c2)C=CC1=O` [Aurintricarboxylic acid], the cell viability was 99.3 ± 2.4%.
Work on `COC(=O)[C@]12CCC(C)(C)C[C@H]1[C@H]1C(=O)C=C3[C@@]4(C)C=C(C#N)C(=O)C(C)(C)[C@@H]4CC[C@@]3(C)[C@]1(C)CC2` [Bardoxolone methyl] yielded a cell viability of 98.9 ± 1.8%.
Compound `Cc1c(-c2ccc(-c3ccccc3F)cc2)nc2ccc(F)cc2c1C(=O)O` [Brequinar] has a cell viability of 91.4 ± 20%.
With `Nc1nc(Cl)nc2c1ncn2[C@H]1C[C@H](O)[C@@H](CO)O1` [Cladribine] the cell viability was 98.9 ± 5.9%.
With `O=C1c2cc([N+](=O)[O-])ccc2-n2c1nc1ccccc1c2=O` [GNF-Pf-3777] the cell viability was 95.5 ± 2.2%.
`C=C(C)[C@H]1Cc2c(ccc3c2O[C@@H]2COc4cc(OC)c(OC)cc4[C@@H]2C3=O)O1` [Rotenone] gave a cell viability of 83.6 ± 6.6%.
In the case of `Oc1ccc(Nc2nc(-c3ccc(Cl)cc3)cs2)cc1` [SKI II], the cell viability is reported as 96.5 ± 2.7%.
`Cc1cn([C@H]2C[C@H](O)[C@@H](COP(=O)(O)OP(=O)(O)O)O2)c(=O)[nH]c1=O` [Thymidine diphosphate] showed a cell viability of 105 ± 1.4%.
Work on `CN(C)c1cc(NC(=O)CNC(C)(C)C)c(O)c2c1C[C@H]1C[C@H]3[C@H](N(C)C)C(=O)C(C(N)=O)C(=O)[C@@]3(O)C(=O)C1C2=O` (stereo partly drawn) [Tigecycline] yielded a cell viability of 97.3 ± 1.4%.
`COc1ccc2c(C(=S)N(C)CC(=O)O)cccc2c1C(F)(F)F` [Tolrestat] gave a cell viability of 95.7 ± 3%.
With `CCC(=O)N1CCN(c2ccc(-n3c(=O)ccc4cnc5ccc(-c6cnc7ccccc7c6)cc5c43)cc2C(F)(F)F)CC1` [Torin1] the cell viability was 100 ± 6.4%.
In the case of `NC(=O)c1cccc(-c2cccc(OC(=O)NC3CCCCC3)c2)c1` [URB-597], the cell viability is reported as 108 ± 3.8%.
In the case of `O=C1O[C@H]([C@@H](O)CO)C(O)=C1O` [Vitamin C (ascorbate)], the cell viability is reported as 80.3 ± 1.6%.

Same assay, conditions: 0.01 µM; 72 h; co-treatment: AZD3965 100 nM
With `O=C(C1CC1)N1CC[C@@H](C=C2NNC(=O)N2c2ccc(-c3ccc4occc4c3)cc2)C1` the cell viability was 104 ± 5.5%.
Work on `C[C@H](NC(=O)c1sccc1OCc1ccc(Cl)cc1)c1ccccc1` yielded a cell viability of 87.5 ± 22%.
For `O=C(O)C1=CC(=C(c2ccc(O)c(C(=O)O)c2)c2ccc(O)c(C(=O)O)c2)C=CC1=O` [Aurintricarboxylic acid], the cell viability was 101 ± 7%.
Compound `COC(=O)[C@]12CCC(C)(C)C[C@H]1[C@H]1C(=O)C=C3[C@@]4(C)C=C(C#N)C(=O)C(C)(C)[C@@H]4CC[C@@]3(C)[C@]1(C)CC2` [Bardoxolone methyl] has a cell viability of 98 ± 5%.
With `Cc1c(-c2ccc(-c3ccccc3F)cc2)nc2ccc(F)cc2c1C(=O)O` [Brequinar] the cell viability was 99.3 ± 11%.
For `Nc1nc(Cl)nc2c1ncn2[C@H]1C[C@H](O)[C@@H](CO)O1` [Cladribine], the cell viability was 104 ± 3.5%.
With `O=C1c2cc([N+](=O)[O-])ccc2-n2c1nc1ccccc1c2=O` [GNF-Pf-3777] the cell viability was 100 ± 1.4%.
With `C=C(C)[C@H]1Cc2c(ccc3c2O[C@@H]2COc4cc(OC)c(OC)cc4[C@@H]2C3=O)O1` [Rotenone] the cell viability was 99.7 ± 16%.
`Oc1ccc(Nc2nc(-c3ccc(Cl)cc3)cs2)cc1` [SKI II] was tested, and the cell viability was 103 ± 1.4%.
`Cc1cn([C@H]2C[C@H](O)[C@@H](COP(=O)(O)OP(=O)(O)O)O2)c(=O)[nH]c1=O` [Thymidine diphosphate] gave a cell viability of 97.9 ± 1%.
Compound `CN(C)c1cc(NC(=O)CNC(C)(C)C)c(O)c2c1C[C@H]1C[C@H]3[C@H](N(C)C)C(=O)C(C(N)=O)C(=O)[C@@]3(O)C(=O)C1C2=O` (stereo partly drawn) [Tigecycline] has a cell viability of 98.51 ± 0.53%.
With `COc1ccc2c(C(=S)N(C)CC(=O)O)cccc2c1C(F)(F)F` [Tolrestat] the cell viability was 106 ± 5.3%.
Compound `CCC(=O)N1CCN(c2ccc(-n3c(=O)ccc4cnc5ccc(-c6cnc7ccccc7c6)cc5c43)cc2C(F)(F)F)CC1` [Torin1] has a cell viability of 100 ± 18%.
In the case of `NC(=O)c1cccc(-c2cccc(OC(=O)NC3CCCCC3)c2)c1` [URB-597], the cell viability is reported as 105 ± 2.3%.
`O=C1O[C@H]([C@@H](O)CO)C(O)=C1O` [Vitamin C (ascorbate)] was tested, and the cell viability was 94.8 ± 6.4%.

Same assay, conditions: 0.01 µM; 72 h; co-treatment: DMSO vehicle
With `O=C(C1CC1)N1CC[C@@H](C=C2NNC(=O)N2c2ccc(-c3ccc4occc4c3)cc2)C1` the cell viability was 105 ± 2.8%.
`C[C@H](NC(=O)c1sccc1OCc1ccc(Cl)cc1)c1ccccc1` gave a cell viability of 98.9 ± 1.4%.
Work on `O=C(O)C1=CC(=C(c2ccc(O)c(C(=O)O)c2)c2ccc(O)c(C(=O)O)c2)C=CC1=O` [Aurintricarboxylic acid] yielded a cell viability of 81.6 ± 29%.
For `COC(=O)[C@]12CCC(C)(C)C[C@H]1[C@H]1C(=O)C=C3[C@@]4(C)C=C(C#N)C(=O)C(C)(C)[C@@H]4CC[C@@]3(C)[C@]1(C)CC2` [Bardoxolone methyl], the cell viability was 97.6 ± 2.4%.
Work on `Cc1c(-c2ccc(-c3ccccc3F)cc2)nc2ccc(F)cc2c1C(=O)O` [Brequinar] yielded a cell viability of 98.8 ± 3.9%.
Compound `Nc1nc(Cl)nc2c1ncn2[C@H]1C[C@H](O)[C@@H](CO)O1` [Cladribine] has a cell viability of 104 ± 1.1%.
With `O=C1c2cc([N+](=O)[O-])ccc2-n2c1nc1ccccc1c2=O` [GNF-Pf-3777] the cell viability was 102 ± 5.9%.
Work on `C=C(C)[C@H]1Cc2c(ccc3c2O[C@@H]2COc4cc(OC)c(OC)cc4[C@@H]2C3=O)O1` [Rotenone] yielded a cell viability of 103 ± 5.4%.
With `Oc1ccc(Nc2nc(-c3ccc(Cl)cc3)cs2)cc1` [SKI II] the cell viability was 105 ± 2.8%.
`Cc1cn([C@H]2C[C@H](O)[C@@H](COP(=O)(O)OP(=O)(O)O)O2)c(=O)[nH]c1=O` [Thymidine diphosphate] showed a cell viability of 100.1 ± 0.28%.
Compound `CN(C)c1cc(NC(=O)CNC(C)(C)C)c(O)c2c1C[C@H]1C[C@H]3[C@H](N(C)C)C(=O)C(C(N)=O)C(=O)[C@@]3(O)C(=O)C1C2=O` (stereo partly drawn) [Tigecycline] has a cell viability of 102.7 ± 0.82%.
Work on `COc1ccc2c(C(=S)N(C)CC(=O)O)cccc2c1C(F)(F)F` [Tolrestat] yielded a cell viability of 106 ± 3.4%.
`CCC(=O)N1CCN(c2ccc(-n3c(=O)ccc4cnc5ccc(-c6cnc7ccccc7c6)cc5c43)cc2C(F)(F)F)CC1` [Torin1] showed a cell viability of 102.1 ± 0.92%.
`NC(=O)c1cccc(-c2cccc(OC(=O)NC3CCCCC3)c2)c1` [URB-597] was tested, and the cell viability was 104 ± 6.3%.
`O=C1O[C@H]([C@@H](O)CO)C(O)=C1O` [Vitamin C (ascorbate)] was tested, and the cell viability was 95.8 ± 7.2%.

Same assay, conditions: 0.01 µM; 72 h; co-treatment: GSK2194069 100 nM
For `O=C(C1CC1)N1CC[C@@H](C=C2NNC(=O)N2c2ccc(-c3ccc4occc4c3)cc2)C1`, the cell viability was 103.6 ± 0.49%.
Compound `C[C@H](NC(=O)c1sccc1OCc1ccc(Cl)cc1)c1ccccc1` has a cell viability of 89.91 ± 0.16%.
Compound `O=C(O)C1=CC(=C(c2ccc(O)c(C(=O)O)c2)c2ccc(O)c(C(=O)O)c2)C=CC1=O` [Aurintricarboxylic acid] has a cell viability of 82.3 ± 19%.
With `COC(=O)[C@]12CCC(C)(C)C[C@H]1[C@H]1C(=O)C=C3[C@@]4(C)C=C(C#N)C(=O)C(C)(C)[C@@H]4CC[C@@]3(C)[C@]1(C)CC2` [Bardoxolone methyl] the cell viability was 92.7 ± 7.7%.
`Cc1c(-c2ccc(-c3ccccc3F)cc2)nc2ccc(F)cc2c1C(=O)O` [Brequinar] showed a cell viability of 103 ± 12%.
